Numbered stars: 1 amine (or outer) side, 2 acyl side, 3 side chain; on linkers, the order of the positions; unused ones are H or OH. Bridge positions count the residues as written; N and C are the ends. Square brackets hold non-standard residues; d marks the D form. Peptide text beside a SMILES is read from it. * marks the point of attachment. hPhe(3,5-F2-4-CF3) = N[C@@H](CCc1cc(F)c(C(F)(F)F)c(F)c1)C(=O)O; hPhe(3-Cl-4-CF3) = N[C@@H](CCc1ccc(C(F)(F)F)c(Cl)c1)C(=O)O; hPhe(3-F,4-CF3) = N[C@@H](CCc1ccc(C(F)(F)F)c(F)c1)C(=O)O; NMePhe(4-Cl) = CN[C@@H](Cc1ccc(Cl)cc1)C(=O)O; NMePhe(4-Me) = CN[C@@H](Cc1ccc(C)cc1)C(=O)O; NMePhe(4-F) = CN[C@@H](Cc1ccc(F)cc1)C(=O)O; NMedβ3hAla = C[C@H](CC(=O)[*:2])N(C)[*:1]; NMeGly(cPent) = CN[C@H](C(=O)O)C1CCCC1; NMeCha = CN[C@@H](CC1CCCCC1)C(=O)O; Hyp = O=C(O)[C@@H]1C[C@@H](O)CN1; NMeAhp(2) = CCCCC[C@H](NC)C(=O)O; NMeD = CN[C@@H](CC(=O)O)C(=O)O; NMeL = CN[C@@H](CC(C)C)C(=O)O; NMePra = C#CC[C@H](NC)C(=O)O; NMeV = CN[C@H](C(=O)O)C(C)C; d(β3hA) = C[C@@H](N)CC(=O)O; Azetidin(1-yl) = C1CN(*)C1; NMeC = CN[C@@H](CS)C(=O)O; Pip = O=C(O)[C@@H]1CCCCN1; NMeA = CN[C@@H](C)C(=O)O; NMeAib = CNC(C)(C)C(=O)O; Nle = CCCC[C@H](N)C(=O)O; Piperidide = C1CCN(*)CC1; dNMeA = CN[C@H](C)C(=O)O; Ac5c = NC1(C(=O)O)CCCC1; Aze = O=C(O)[C@@H]1CCN1; Cyclobutyl = C1CC(*)C1; Sar = CNCC(=O)O
Tests used:
[1] = system: Human pancreatic cancer cell line AsPC-1 (G12D mutation Kras); test: AsPC-1 cell growth inhibition (AsPC-1 CGI); format: cell-based; conditions: read-out: AsPC-1 cell growth inhibition, 50% growth inhibitory concentration (IC50 value); 96 hours, CellTiter-Glo, values classified in ranges
Method: Test compounds were serially dilated with dimethyl sulfoxide, and 200 nL was then dispensed to a U-bottom 96-well plate using Labcyte Echo. […] The cell suspension was dispensed to a. plate containing a test compound at 100 μL per well and incubated at 37° C. in a 5% carbon dioxide gas incubator. 96 hours later, 80 μL of CellTiter-Glo (Promega) was added to each well and fluorescence was measured.

[2] = molecular target: protein-protein interaction between Kras and SOS1 (biotin-tagged human Kras loaded with GDP, His-tagged human SOS1) (Homo sapiens (Human), UniProt P01116, G12D); test: Protein-protein interaction inhibition between Kras and SOS1 (KrasG12D-SOS PPI) using AlphaScreen; format: biochemical; conditions: AlphaScreen; biotin-tagged human Kras loaded with GDP, His-tagged human SOS1; read-out: KRAS G12D-SOS PPI IC50;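 further: kras produced in E. coli, Ni-coupled donor beads and streptavidin acceptor beads, excitation 680 nm with emission detected at 520–620 nm via singlet oxygen transfer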

Row | SMILES | IC50 [1] [nM] | IC50 [2] [nM]
1 | CCCC[C@@H]1NC(=O)[C@H](CCc2ccc(C(F)(F)F)c(Cl)c2)NC(=O)CN(C)C(=O)[C@H](CC2CCCCC2)N(C)C(=O)[C@@H]2CCN2C(=O)CN(C)C(=O)[C@H]([C@@H](C)CC)NC(=O)[C@@H]2CCCCN2C(=O)C[C@@H](C(=O)N2CCCCC2)N(C)C(=O)[C@H](CC(C)C)NC(=O)C(C)(C)N(C)C1=O [Compound 760] ([Pip]I[Sar][Aze][NMeCha][Sar][hPhe(3-Cl-4-CF3)][Nle][NMeAib]L[NMeD]-Piperidide; lactam N-11) | > 500 | 5.2
2 | CCO[C@@H]1C[C@H]2C(=O)NC3(CCCC3)C(=O)N(C)[C@@H](C3CCCC3)C(=O)N(C)[C@H](C(=O)N(C)C)CSCC(=O)N(C)[C@@H](CC(C)C)C(=O)N[C@@H]([C@@H](C)CC)C(=O)N(C)[C@@H](C)C(=O)N3CC[C@H]3C(=O)N(C)[C@@H](CC3CCCCC3)C(=O)N(C)CC(=O)N[C@@H](CCc3cc(F)c(C(F)(F)F)c(F)c3)C(=O)N2C1 [Compound 2176, (3S,9S,12S,17S,20S,23S,29R,32S,38S,40R)-20-[(2S)-butan-2-yl]-9-(cyclohexylmethyl)-32-cyclopentyl-3-[2-[3,5-difluoro-4-(trifluoromethyl)phenyl]ethyl]-40-ethoxy-N,N,7,10,17,18,24,30,33-nonamethyl-23(2-methylpropyl)-2,5,8,11,16,19,22,25,31,34,37-undecaoxospiro[27-thia-1,4,7,10,15,18,21,24,30,33,36-undecazatricyclo[36.3.0.012,15]hentetracontane-35,1′-cyclopentane]-29-carboxamide] ({CH2CO}-[NMeL]I[NMeA][Aze][NMeCha][Sar][hPhe(3,5-F2-4-CF3)][Hyp](Et)[Ac5c][NMeGly(cPent)][NMeC]-NMe2; thioether N-11) | > 500 | 120
3 | CC[C@H](C)[C@@H]1NC(=O)[C@H](CC(C)C)N(C)C(=O)C[C@@H](C)NC(=O)[C@H](C2CCCC2)N(C)C(=O)C2(CCCC2)NC(=O)[C@@H]2CCCN2C(=O)[C@H](CCc2ccc(C(F)(F)F)c(Cl)c2)NC(=O)[C@@H](C)N(C)C(=O)[C@H](Cc2ccc(C)cc2)N(C)C(=O)[C@@H]2CCN2C(=O)CN(C)C1=O [Compound 1517] (cyclo([Ac5c][NMeGly(cPent)][d(β3hA)][NMeL]I[Sar][Aze][NMePhe(4-Me)][dNMeA][hPhe(3-Cl-4-CF3)]P)) | > 500 | 49
4 | C#CC[C@H]1C(=O)N(C)[C@H](C(=O)N2CCCCC2)CC(=O)N(C)[C@@H](CC(C)C)C(=O)N[C@@H]([C@@H](C)CC)C(=O)N(C)[C@@H](C)C(=O)N2CC[C@H]2C(=O)N(C)[C@@H](CC2CCCCC2)C(=O)N(C)CC(=O)N[C@@H](CCc2ccc(C(F)(F)F)c(Cl)c2)C(=O)N2CCC[C@H]2C(=O)NC2(CCCC2)C(=O)N1C [Compound 766] ([NMeL]I[NMeA][Aze][NMeCha][Sar][hPhe(3-Cl-4-CF3)]P[Ac5c][NMePra][NMeD]-Piperidide; lactam N-11) | > 500 | 130
5 | CCCCC[C@H]1C(=O)N[C@@H]([C@@H](C)CC)C(=O)N(C)[C@@H](C)C(=O)N2CC[C@H]2C(=O)N(C)[C@@H](CC2CCCCC2)C(=O)N(C)CC(=O)N[C@@H](CCc2ccc(C(F)(F)F)c(Cl)c2)C(=O)N2CCC[C@H]2C(=O)NC2(CCCC2)C(=O)N(C)[C@@H](C2CCCC2)C(=O)N(C)[C@H](C(=O)N2CCC2)CC(=O)N1C [Compound 144] ([NMeAhp(2)]I[NMeA][Aze][NMeCha][Sar][hPhe(3-Cl-4-CF3)]P[Ac5c][NMeGly(cPent)][NMeD]-{Azetidin(1-yl)}; lactam N-11) | ≤ 20 | 1.1
6 | CC(C)C[C@H]1C(=O)N[C@@H](COC2CCC2)C(=O)N(C)[C@@H](C)C(=O)N2CC[C@H]2C(=O)N(C)[C@@H](CC2CCCCC2)C(=O)N(C)CC(=O)N[C@@H](CCc2ccc(C(F)(F)F)c(Cl)c2)C(=O)N2CCC[C@H]2C(=O)NC2(CCCC2)C(=O)N(C)[C@@H](C(C)C)C(=O)N(C)[C@H](C(=O)N2CCCCC2)CC(=O)N1C [Compound 45] ([NMeL]S(Cyclobutyl)[NMeA][Aze][NMeCha][Sar][hPhe(3-Cl-4-CF3)]P[Ac5c][NMeV][NMeD]-Piperidide; lactam N-11) | > 500 | 84
7 | CC[C@H](C)[C@@H]1NC(=O)[C@H](CC(C)C)N(C)C(=O)C[C@@H](C)N(C)C(=O)[C@H](C(C)C)NC(=O)C(C)(C)N(C)C(=O)[C@H](CC(C)C)NC(=O)[C@H](CCc2ccc(C(F)(F)F)c(F)c2)NC(=O)CN(C)C(=O)[C@H](Cc2ccc(Cl)cc2)N(C)C(=O)CN(C)C(=O)CN(C)C1=O [Compound 1084] (cyclo(I[Sar][Sar][NMePhe(4-Cl)][Sar][hPhe(3-F,4-CF3)]L[NMeAib]V[NMedβ3hAla][NMeL])) | > 500 | 53
8 | CC[C@H](C)[C@@H]1NC(=O)[C@H](C)N(C)C(=O)C[C@@H](C)NC(=O)[C@H](C(C)C)N(C)C(=O)C2(CCCC2)NC(=O)[C@@H]2CCCN2C(=O)[C@H](CCc2ccc(C(F)(F)F)c(Cl)c2)NC(=O)[C@@H](C)N(C)C(=O)[C@H](Cc2ccc(F)cc2)N(C)C(=O)[C@@H]2CCN2C(=O)[C@H](C)N(C)C1=O [Compound 1702] (cyclo([Ac5c][NMeV][d(β3hA)][NMeA]I[NMeA][Aze][NMePhe(4-F)][dNMeA][hPhe(3-Cl-4-CF3)]P)) | > 500 | 31

— patent US20240148821A1, “PHARMACEUTICAL USE OF CYCLIC PEPTIDE COMPOUND” (CHUGAI SEIYAKU KABUSHIKI KAISHA, priority 2021, published 2024)
